From ChEMBL document CHEMBL1142627, “Ribofuranosyl triazolone: a natural product herbicide with activity on adenylosuccinate synthetase following phosphorylation” (J Nat Prod, 2000)
Calls of active or inactive are those of the source. No cut-off for these calls is given here.

What was measured:
[1] = tested on: Abutilon theophrasti; assay: Phytotoxicity against Abutilon theophrasti assessed as visual injury at 1.0 kg/ha growth rate treated post-emergence by greenhouse test; assay type: functional
[2] = tested on: Abutilon theophrasti; assay: Phytotoxicity against Abutilon theophrasti assessed as visual injury at 0.5 kg/ha growth rate treated post-emergence by greenhouse test; assay type: functional
[3] = tested on: Abutilon theophrasti; assay: Phytotoxicity against Abutilon theophrasti assessed as visual injury at 4.0 kg/ha growth rate treated pre-emergence by greenhouse test; assay type: functional
[4] = tested on: Abutilon theophrasti; assay: Phytotoxicity against Abutilon theophrasti assessed as visual injury at 2.0 kg/ha growth rate treated pre-emergence by greenhouse test; assay type: functional
[5] = tested on: Abutilon theophrasti; assay: Phytotoxicity against Abutilon theophrasti assessed as visual injury at 1.0 kg/ha growth rate treated pre-emergence by greenhouse test; assay type: functional
[6] = tested on: Abutilon theophrasti; assay: Phytotoxicity against Abutilon theophrasti assessed as visual injury at 0.5 kg/ha growth rate treated pre-emergence by greenhouse test; assay type: functional
[7] = tested on: Amaranthus retroflexus; assay: Phytotoxicity against Amaranthus retroflexus assessed as visual injury at 4.0 kg/ha growth rate treated post-emergence by greenhouse test; assay type: functional
[8] = tested on: Amaranthus retroflexus; assay: Phytotoxicity against Amaranthus retroflexus assessed as visual injury at 2.0 kg/ha growth rate treated post-emergence by greenhouse test; assay type: functional
[9] = tested on: Amaranthus retroflexus; assay: Phytotoxicity against Amaranthus retroflexus assessed as visual injury at 1.0 kg/ha growth rate treated post-emergence by greenhouse test; assay type: functional
[10] = tested on: Amaranthus retroflexus; assay: Phytotoxicity against Amaranthus retroflexus assessed as visual injury at 0.5 kg/ha growth rate treated post-emergence by greenhouse test; assay type: functional
[11] = tested on: Amaranthus retroflexus; assay: Phytotoxicity against Amaranthus retroflexus assessed as visual injury at 4.0 kg/ha growth rate treated pre-emergence by greenhouse test; assay type: functional
[12] = tested on: Amaranthus retroflexus; assay: Phytotoxicity against Amaranthus retroflexus assessed as visual injury at 2.0 kg/ha growth rate treated pre-emergence by greenhouse test; assay type: functional
[13] = tested on: Amaranthus retroflexus; assay: Phytotoxicity against Amaranthus retroflexus assessed as visual injury at 1.0 kg/ha growth rate treated pre-emergence by greenhouse test; assay type: functional
[14] = tested on: Amaranthus retroflexus; assay: Phytotoxicity against Amaranthus retroflexus assessed as visual injury at 0.5 kg/ha growth rate treated pre-emergence by greenhouse test; assay type: functional
[15] = tested on: Setaria faberi; assay: Phytotoxicity against Setaria faberi assessed as visual injury at 4.0 kg/ha growth rate treated post-emergence by greenhouse test; assay type: functional
[16] = tested on: Setaria faberi; assay: Phytotoxicity against Setaria faberi assessed as visual injury at 2.0 kg/ha growth rate treated post-emergence by greenhouse test; assay type: functional
[17] = tested on: Setaria faberi; assay: Phytotoxicity against Setaria faberi assessed as visual injury at 1.0 kg/ha growth rate treated post-emergence by greenhouse test; assay type: functional
[18] = tested on: Setaria faberi; assay: Phytotoxicity against Setaria faberi assessed as visual injury at 0.5 kg/ha growth rate treated post-emergence by greenhouse test; assay type: functional
[19] = tested on: Setaria faberi; assay: Phytotoxicity against Setaria faberi assessed as visual injury at 4.0 kg/ha growth rate treated pre-emergence by greenhouse test; assay type: functional
[20] = tested on: Setaria faberi; assay: Phytotoxicity against Setaria faberi assessed as visual injury at 2.0 kg/ha growth rate treated pre-emergence by greenhouse test; assay type: functional
[21] = tested on: Setaria faberi; assay: Phytotoxicity against Setaria faberi assessed as visual injury at 1.0 kg/ha growth rate treated pre-emergence by greenhouse test; assay type: functional
[22] = tested on: Setaria faberi; assay: Phytotoxicity against Setaria faberi assessed as visual injury at 0.5 kg/ha growth rate treated pre-emergence by greenhouse test; assay type: functional
[23] = tested on: Arabidopsis thaliana; assay: Metabolite reversal in Arabidopsis thaliana assessed as root growth inhibition in presence of adenine and guanine; assay type: functional, organism-based
[24] = tested on: Arabidopsis thaliana; assay: Metabolite reversal in Arabidopsis thaliana assessed as root growth inhibition in presence of adenine; assay type: functional, organism-based
[25] = tested on: Arabidopsis thaliana; assay: Metabolite reversal in Arabidopsis thaliana assessed as root growth inhibition in presence of guanine; assay type: functional, organism-based
[26] = organism: Oryctolagus cuniculus; assay: Inhibition of rabbit muscle Adenylosuccinate synthase assessed as adenylosuccinate formation
[27] = tested on: BMS; assay: Inhibition of Zea mays BMS cells Adenylosuccinate synthase assessed as adenylosuccinate formation; assay type: cell-based
[28] = tested on: Alopecurus myosuroides; assay: Phytotoxicity against Alopecurus myosuroides assessed as visual injury at 4.0 kg/ha growth rate treated post-emergence by greenhouse test; assay type: functional
[29] = tested on: Alopecurus myosuroides; assay: Phytotoxicity against Alopecurus myosuroides assessed as visual injury at 2.0 kg/ha growth rate treated post-emergence by greenhouse test; assay type: functional
[30] = tested on: Alopecurus myosuroides; assay: Phytotoxicity against Alopecurus myosuroides assessed as visual injury at 1.0 kg/ha growth rate treated post-emergence by greenhouse test; assay type: functional
[31] = tested on: Alopecurus myosuroides; assay: Phytotoxicity against Alopecurus myosuroides assessed as visual injury at 0.5 kg/ha growth rate treated post-emergence by greenhouse test; assay type: functional
[32] = tested on: Alopecurus myosuroides; assay: Phytotoxicity against Alopecurus myosuroides assessed as visual injury at 4.0 kg/ha growth rate treated pre-emergence by greenhouse test; assay type: functional
[33] = tested on: Alopecurus myosuroides; assay: Phytotoxicity against Alopecurus myosuroides assessed as visual injury at 2.0 kg/ha growth rate treated pre-emergence by greenhouse test; assay type: functional
[34] = tested on: Alopecurus myosuroides; assay: Phytotoxicity against Alopecurus myosuroides assessed as visual injury at 1.0 kg/ha growth rate treated pre-emergence by greenhouse test; assay type: functional
[35] = tested on: Alopecurus myosuroides; assay: Phytotoxicity against Alopecurus myosuroides assessed as visual injury at 0.5 kg/ha growth rate treated pre-emergence by greenhouse test; assay type: functional
[36] = tested on: Arabidopsis thaliana; assay: Inhibition of Arabidopsis thaliana root growth; assay type: functional, organism-based
[37] = tested on: Helianthus annuus; assay: Phytotoxicity against Helianthus annuus assessed as visual injury at 4.0 kg/ha growth rate treated post-emergence by greenhouse test; assay type: functional
[38] = tested on: Helianthus annuus; assay: Phytotoxicity against Helianthus annuus assessed as visual injury at 2.0 kg/ha growth rate treated post-emergence by greenhouse test; assay type: functional
[39] = tested on: Helianthus annuus; assay: Phytotoxicity against Helianthus annuus assessed as visual injury at 1.0 kg/ha growth rate treated post-emergence by greenhouse test; assay type: functional
[40] = tested on: Helianthus annuus; assay: Phytotoxicity against Helianthus annuus assessed as visual injury at 0.5 kg/ha growth rate treated post-emergence by greenhouse test; assay type: functional
[41] = tested on: Helianthus annuus; assay: Phytotoxicity against Helianthus annuus assessed as visual injury at 4.0 kg/ha growth rate treated pre-emergence by greenhouse test; assay type: functional
[42] = tested on: Helianthus annuus; assay: Phytotoxicity against Helianthus annuus assessed as visual injury at 2.0 kg/ha growth rate treated pre-emergence by greenhouse test; assay type: functional
[43] = tested on: Helianthus annuus; assay: Phytotoxicity against Helianthus annuus assessed as visual injury at 1.0 kg/ha growth rate treated pre-emergence by greenhouse test; assay type: functional
[44] = tested on: Helianthus annuus; assay: Phytotoxicity against Helianthus annuus assessed as visual injury at 0.5 kg/ha growth rate treated pre-emergence by greenhouse test; assay type: functional
[45] = tested on: Echinochloa crus-galli; assay: Phytotoxicity against Echinochloa crusgalli assessed as visual injury at 4.0 kg/ha growth rate treated post-emergence by greenhouse test; assay type: functional
[46] = tested on: Echinochloa crus-galli; assay: Phytotoxicity against Echinochloa crusgalli assessed as visual injury at 2.0 kg/ha growth rate treated post-emergence by greenhouse test; assay type: functional
[47] = tested on: Echinochloa crus-galli; assay: Phytotoxicity against Echinochloa crusgalli assessed as visual injury at 1.0 kg/ha growth rate treated post-emergence by greenhouse test; assay type: functional
[48] = tested on: Echinochloa crus-galli; assay: Phytotoxicity against Echinochloa crusgalli assessed as visual injury at 0.5 kg/ha growth rate treated post-emergence by greenhouse test; assay type: functional
[49] = tested on: Echinochloa crus-galli; assay: Phytotoxicity against Echinochloa crusgalli assessed as visual injury at 4.0 kg/ha growth rate treated pre-emergence by greenhouse test; assay type: functional
[50] = tested on: Echinochloa crus-galli; assay: Phytotoxicity against Echinochloa crusgalli assessed as visual injury at 2.0 kg/ha growth rate treated pre-emergence by greenhouse test; assay type: functional
[51] = tested on: Echinochloa crus-galli; assay: Phytotoxicity against Echinochloa crusgalli assessed as visual injury at 1.0 kg/ha growth rate treated pre-emergence by greenhouse test; assay type: functional
[52] = tested on: Echinochloa crus-galli; assay: Phytotoxicity against Echinochloa crusgalli assessed as visual injury at 0.5 kg/ha growth rate treated pre-emergence by greenhouse test; assay type: functional
[53] = tested on: Ipomoea hederacea; assay: Phytotoxicity against Ipomoea hederacea assessed as visual injury at 4.0 kg/ha growth rate treated post-emergence by greenhouse test; assay type: functional
[54] = tested on: Ipomoea hederacea; assay: Phytotoxicity against Ipomoea hederacea assessed as visual injury at 2.0 kg/ha growth rate treated post-emergence by greenhouse test; assay type: functional
[55] = tested on: Ipomoea hederacea; assay: Phytotoxicity against Ipomoea hederacea assessed as visual injury at 1.0 kg/ha growth rate treated post-emergence by greenhouse test; assay type: functional
[56] = tested on: Ipomoea hederacea; assay: Phytotoxicity against Ipomoea hederacea assessed as visual injury at 0.5 kg/ha growth rate treated post-emergence by greenhouse test; assay type: functional
[57] = tested on: Ipomoea hederacea; assay: Phytotoxicity against Ipomoea hederacea assessed as visual injury at 4.0 kg/ha growth rate treated pre-emergence by greenhouse test; assay type: functional
[58] = tested on: Ipomoea hederacea; assay: Phytotoxicity against Ipomoea hederacea assessed as visual injury at 2.0 kg/ha growth rate treated pre-emergence by greenhouse test; assay type: functional
[59] = tested on: Ipomoea hederacea; assay: Phytotoxicity against Ipomoea hederacea assessed as visual injury at 1.0 kg/ha growth rate treated pre-emergence by greenhouse test; assay type: functional
[60] = tested on: Ipomoea hederacea; assay: Phytotoxicity against Ipomoea hederacea assessed as visual injury at 0.5 kg/ha growth rate treated pre-emergence by greenhouse test; assay type: functional
[61] = tested on: Avena fatua; assay: Phytotoxicity against Avena fatua assessed as visual injury at 4.0 kg/ha growth rate treated post-emergence by greenhouse test; assay type: functional
[62] = tested on: Avena fatua; assay: Phytotoxicity against Avena fatua assessed as visual injury at 2.0 kg/ha growth rate treated post-emergence by greenhouse test; assay type: functional
[63] = tested on: Avena fatua; assay: Phytotoxicity against Avena fatua assessed as visual injury at 1.0 kg/ha growth rate treated post-emergence by greenhouse test; assay type: functional
[64] = tested on: Avena fatua; assay: Phytotoxicity against Avena fatua assessed as visual injury at 0.5 kg/ha growth rate treated post-emergence by greenhouse test; assay type: functional
[65] = tested on: Avena fatua; assay: Phytotoxicity against Avena fatua assessed as visual injury at 4.0 kg/ha growth rate treated pre-emergence by greenhouse test; assay type: functional
[66] = tested on: Avena fatua; assay: Phytotoxicity against Avena fatua assessed as visual injury at 2.0 kg/ha growth rate treated pre-emergence by greenhouse test; assay type: functional
[67] = tested on: Avena fatua; assay: Phytotoxicity against Avena fatua assessed as visual injury at 1.0 kg/ha growth rate treated pre-emergence by greenhouse test; assay type: functional
[68] = tested on: Avena fatua; assay: Phytotoxicity against Avena fatua assessed as visual injury at 0.5 kg/ha growth rate treated pre-emergence by greenhouse test; assay type: functional
[69] = tested on: Abutilon theophrasti; assay: Phytotoxicity against Abutilon theophrasti assessed as visual injury at 4.0 kg/ha growth rate treated post-emergence by greenhouse test; assay type: functional
[70] = tested on: Abutilon theophrasti; assay: Phytotoxicity against Abutilon theophrasti assessed as visual injury at 2.0 kg/ha growth rate treated post-emergence by greenhouse test; assay type: functional
[71] = Arabidopsis thaliana, read-out: I50

O=c1[nH]ncn1[C@@H]1O[C@H](CO)[C@@H](O)[C@H]1O
Activity [1]: 70% | Activity [2]: 85% | Activity [3]: 65% | Activity [4]: 30% | Activity [5]: 30% | Activity [6]: 15% | Activity [7]: 70% | Activity [8]: 50% | Activity [9]: 50% | Activity [10]: 0% | Activity [11]: 0% | Activity [12]: 0% | Activity [13]: 0% | Activity [14]: 0% | Activity [15]: 85% | Activity [16]: 60% | Activity [17]: 70% | Activity [18]: 50% | Activity [19]: 0% | Activity [20]: 0% | Activity [21]: 0% | Activity [22]: 0% | I50 [23]: 2.5 ppm | IC50 [23, 71]: 11.5 µM | I50 [24]: 1.8 ppm | IC50 [24, 71]: 8.3 µM | Activity [25]: inactive | Activity [26]: inactive | Activity [27]: inactive | Activity [28]: 80% | Activity [29]: 70% | Activity [30]: 70% | Activity [31]: 40% | Activity [32]: 40% | Activity [33]: 35% | Activity [34]: 30% | Activity [35]: 0% | I50 [36]: 0.04 ppm | IC50 [36, 71]: 200 nM | Activity [37]: 95% | Activity [38]: 95% | Activity [39]: 100% | Activity [40]: 90% | Activity [41]: 60% | Activity [42]: 20% | Activity [43]: 10% | Activity [44]: 0% | Activity [45]: 90% | Activity [46]: 85% | Activity [47]: 85% | Activity [48]: 70% | Activity [49]: 0% | Activity [50]: 0% | Activity [51]: 0% | Activity [52]: 0% | Activity [53]: 90% | Activity [54]: 80% | Activity [55]: 80% | Activity [56]: 75% | Activity [57]: 40% | Activity [58]: 40% | Activity [59]: 25% | Activity [60]: 15% | Activity [61]: 60% | Activity [62]: 70% | Activity [63]: 60% | Activity [64]: 50% | Activity [65]: 0% | Activity [66]: 0% | Activity [67]: 0% | Activity [68]: 0% | Activity [69]: 80% | Activity [70]: 80%
